The results in this text go back to BindingDB's records for patent US20250215017 (Medinno Pharmaceutical Technology (Zhuhai) Co., 2025).

pIC50: −log10 of the molar value.

The test deals with T1, TGF-beta receptor type-1 (Homo sapiens, UniProt P36897).
T1 sequence (P36897 whole entry): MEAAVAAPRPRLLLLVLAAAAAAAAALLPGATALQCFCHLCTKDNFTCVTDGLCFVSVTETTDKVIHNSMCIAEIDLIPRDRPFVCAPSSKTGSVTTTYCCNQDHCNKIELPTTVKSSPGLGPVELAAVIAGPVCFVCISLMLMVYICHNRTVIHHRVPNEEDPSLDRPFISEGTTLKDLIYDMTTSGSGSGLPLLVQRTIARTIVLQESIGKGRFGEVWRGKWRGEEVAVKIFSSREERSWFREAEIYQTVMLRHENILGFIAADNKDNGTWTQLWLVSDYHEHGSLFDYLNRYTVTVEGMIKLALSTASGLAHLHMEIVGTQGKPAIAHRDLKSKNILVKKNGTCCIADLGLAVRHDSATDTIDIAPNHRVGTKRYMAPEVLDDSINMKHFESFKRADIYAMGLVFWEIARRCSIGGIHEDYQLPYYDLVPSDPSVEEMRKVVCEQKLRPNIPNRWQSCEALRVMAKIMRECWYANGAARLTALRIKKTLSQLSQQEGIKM
Kind of test: ADP-Glo Kinase Assay. The protocol: The principle of the activity assay was that TGFβR1 phosphorylates the substrate TGFβR1tide, consuming ATP in the process. […] The specific experimental steps were as follows. Compounds were diluted 4-fold in DMSO in a dilution plate, with the final starting concentration of the compounds being 10 μM, across 10 concentration gradient points. The compounds were then further diluted 50-fold into the kinase reaction buffer and incubated on a shaker for 20 minutes. Kinase was formulated with an enzyme reaction buffer. 2 μl kinase was added to each well of the reaction plate. 1 μl of the compound diluted in buffer was added to each well, and then the plate was sealed with a sealing membrane and centrifuged at 1000 g for 30 seconds, leaving it at room temperature for 10 minutes. Solutions of TGFβR1tide and ATP were prepared with the kinase reaction buffer, and 2 μL of the TGFβR1tide/ATP solution was added to the reaction plate. The plate was sealed with a sealing film and centrifuged at 1000 g for 30 seconds. It was allowed to react at room temperature for 60 minutes. Subsequently, 4 μL of ADP-Glo was transferred to a 384-well reaction plate and centrifuged at 1000 rpm/min for 1 minute, followed by incubation at 25° C. for 40 minutes. […] The RLU (Relative Luminescence Unit) signal was read using a BMG microplate reader, which was used to characterize the degree of kinase activity.
Background: In ADP-Glo the light output rises with the ADP produced.

As usually defined, the pIC50 is −log10 of the IC50, conventionally taken in molar units. Higher therefore signals a low IC50. On to `Cc1cccc(-c2n[nH]cc2-c2ccnc(-c3nc4c([nH]3)CN(C(=O)N3CCN(C)CC3)C4)c2)n1` [US20250215017, Compound 7], for which the pIC50 is 8.96.
